Reference: patent US9232792B2, “Method for promoting plant growth” (SUMITOMO CHEMICAL COMPANY, LIMITED, priority 2011, dated 2016)

Experiments:
Type in all cases: in vivo
[1] = system: Rice (cultivar: Nipponbare); test: Test Example 1: promotion of root growth in hydroponics of rice; details: 1 ppm in hydroponic solution; 3 days germination + 3 days cultivation
Protocol: (§1) Rice (cultivar: Nipponbare)
DMSO solutions containing each of the present compounds 1 to 3 at 10,000 ppm were prepared. A 1/10,000 volume of each DMSO solution containing each of the present compounds 1 to 3 at 10,000 ppm was added to a Hoagland solution for hydroponics at ¼ concentration (Hoagland and Arnon, California Agricultural Experiment Station 1950 Circular 347 pp. 34) to obtain a solution for hydroponics containing each of the present compounds 1 to 3 at 1 ppm. These solutions were used in the treated-group.
(§2) In a non-treated group, a solution for hydroponics obtained by adding a Hoagland solution for hydroponics at ¼ concentration to a 1/10,000 volume of DMSO was used.
(§3) The rice seeds were immersed in an aqueous solution of 1% sodium hypochlorite for 10 minutes, followed by 70% ethanol solution to sterilize their surfaces. After that, the seeds were washed with distilled water. The sterilized seeds were immersed in each solution for hydroponics containing the test compound at the given concentration, and incubated at a temperature of 28° C. for 3 days under dark conditions to stimulate the germination of the seeds.
(§4) Then, 30 ml of each solution for hydroponics containing the test compound at the given concentration was dispensed into a plastic tube (20 mm in diameter×113 mm in height) covered with a cardboard on the lateral surface for blocking a light. A float made of a styrene board and a vinyl mesh was placed on the water surface of each solution for hydroponics, and the rice seeds obtained after the stimulation of germination were placed on the float. The seeds were cultivated for 3 days under the conditions of an illuminance of 4,000 lux at the top of the tube, a temperature of 26° C., a humidity of 50%, and a day length of 16 hours.
The root length of the rice seedlings obtained after the cultivation was measured by using WinRHIZO system (manufactured by REGENT INSTRUMENTS). The average value of the root length in the treated group was calculated from the measurement values of 4 or 5 individuals. […]

[2] = system: Tobacco (Nicotiana benthamiana); test: Test Example 4: reduction of low-temperature stress in hydroponics of tobacco; details: 10 ppm in medium; 1.5±1.0° C. for 7 days, then 3 days at 22° C.
Protocol: Tobacco (Nicotiana benthamiana)
DMSO solutions containing each of the present compounds 1 to 4 at a concentration of 10,000 ppm were prepared. A 1/1,000 volume of each DMSO solution was added to a Murashige-and-Skoog medium (a medium containing 2.3 g of a mixture of salts for Murashige-and-Skoog medium (manufactured by Wako. Pure Chemical Industries, Ltd.), 200 mg of myoinositol (manufactured by Sigma-Aldrich), 2 mg of nicotinic acid (manufactured by Wako Pure Chemical Industries, Ltd.), 2 mg of pyridoxine hydrochloride (manufactured by Wako Pure Chemical Industries, Ltd.), 20 mg of thiamine hydrochloride (manufactured by Wako Pure Chemical Industries, Ltd.), 20 g of sucrose (manufactured by Wako Pure Chemical Industries, Ltd.), 1 g of MES (manufactured by DOJINDO LABORATORIES) in 1 L of water, adjusted to pH 5.8) at ½ concentration to obtain a medium containing the test compound at a concentration of 10 ppm. These media were used in the treated-group.
In a non-treated group, a medium obtained by adding a 1/1,000 volume of DMSO to a Murashige-and-Skoog medium at ½ concentration was used.
The seeds of tobacco (Nicotiana benthamiana) were sown on 5 μL of the medium, and incubated at 22° C. overnight. Thereto was added 45 μL of a medium containing each present compound at a concentration of 10 ppm, and cultivated for 7 days under the conditions of an illuminance of 4,000 lux, a temperature of 22° C. and a day length of 16 hours, thereby treating the seedlings of tobacco (Nicotiana benthamiana) with the test compound.
In the non-treated group, 45 μL of a medium obtained by adding a 1/1,000 volume of DMSO to a Murashige-and-Skoog medium at ½ concentration was added, and treated in the same manner as above.
The seedlings of tobacco (Nicotiana benthamiana) treated with the present compounds were cultivated for 7 days under the conditions of an illuminance of 2,000 lux, a temperature of 1.5±1.0° C., and a day length of 16 hours, thereby subjecting to low-temperature stress treatment.
The plants of tobacco (Nicotiana benthamiana) subjected to low-temperature stress treatment was cultivated for 3 days under the conditions of an illuminance of 4,000 lux, a temperature of 22° C., and a day length of 16 hours, and then the green leaf area of the plants was visually evaluated. Completely dead plant was scored as 0, the plant without low-temperature stress treatment was scored as 5, the green area was rated on a 6-point scale in ⅕ increments, and the score of not less than 1 was regarded as effective in reducing the stress. As a result of visual evaluation, the green leaf area of plants in the treated group, wherein the plants were treated with the present compound 1, 2, 3 or 4 was much larger than that in the non-treated group.

[3] = system: Rice (cultivar: Nipponbare); test: Test Example 3: promotion of root growth in hydroponics of rice; details: 1 ppm in hydroponic solution; 3 days germination + 3 days cultivation
Protocol: as §1
DMSO solutions containing each of the present compounds 4 to 8 at 10,000 ppm were prepared. A 1/10,000 volume of each DMSO solution containing each of the present compounds 4 to 8 at 10,000 ppm was added to a Hoagland solution for hydroponics at ¼ concentration (Hoagland and Arnon, California Agricultural Experiment Station 1950 Circular 347 pp. 34) to obtain a solution for hydroponics containing each of the present compounds 4 to 8 at 1 ppm. These solutions were used in the treated-group.
as §2, §3, §4
The root length of the rice seedlings obtained after the cultivation was measured by using WinRHIZO system (manufactured by REGENT INSTRUMENTS). The average value of the root length in the treated group was calculated from the measurement values of 4 or 5 individuals. As a result, the root length in the treated group, wherein the plants were treated with the present compound 4, 5, 6, 7 or 8 (at a concentration of 1 ppm in each case), was much longer than that in the non-treated group.

Compound | root length of the rice seedlings vs non-treated group [1] | green leaf area of plants (visual evaluation) vs non-treated group [2] | root length of the rice seedlings vs non-treated group [3]
O=C(O)c1cc2ccc(C(F)(F)F)cc2s1 [The present compound 2, 6-(trifluoromethyl)benzo[b]thiophene-2-carboxylic acid] | much longer | much larger | –
O=C(O)c1cc2c(C(F)(F)F)cccc2s1 [The present compound 3, 4-(trifluoromethyl)benzo[b]thiophene-2-carboxylic acid] | much longer | much larger | –
O=C(O)c1cc2cccc(C(F)(F)F)c2s1 [The present compound 4, 7-(trifluoromethyl)benzo[b]thiophene-2-carboxylic acid] | – | much larger | much longer
O=C([O-])c1cc2cc(C(F)(F)F)ccc2s1.[Na+] [The present compound 5, sodium 5-(trifluoromethyl)benzo[b]thiophene-2-carboxylate] | – | – | much longer
O=C([O-])c1cc2cc(C(F)(F)F)ccc2s1.[K+] [The present compound 6, potassium 5-(trifluoromethyl)benzo[b]thiophene-2-carboxylate] | – | – | much longer
CC(C)N.O=C(O)c1cc2cc(C(F)(F)F)ccc2s1 [The present compound 7, isopropylammonium 5-(trifluoromethyl)benzo[b]thiophene-2-carboxylate] | – | – | much longer
laurylammonium 5-(trifluoromethyl)benzo[b]thiophene-2-carboxylate [The present compound 8] | – | – | much longer
